Measurements: publication PMC6222422, “Synthesis and Biological Evaluation of Novel Indole-Derived Thioureas” (Molecules : A Journal of Synthetic Chemistry and Natural …, 2018)

Experiments:
[1] = test system: BVDV; assay: microbe, parasite or virus in culture; assay type: cell-based, bovine viral diarrhoea virus; conditions: for EC50: Bovine viral diarrhea virus isolates and strains, MDBK, in Bos taurus, read-out: BVDV EC50
[2] = test system: YFV; assay: microbe, parasite or virus in culture; assay type: cell-based; conditions: Yellow fever virus, BHK, read-out: YFV EC50
[3] = test system: CV-B5; assay: microbe, parasite or virus in culture; assay type: cell-based, coxsackievirus B5; conditions: Enterovirus B, CVB5, Vero 76, read-out: CV-B5 EC50
[4] = test system: Sb-1; assay: microbe, parasite or virus in culture; assay type: cell-based, poliovirus type-1; conditions: Enterovirus C, Vero 76, read-out: Sb-1 EC50
[5] = test system: Reo-1; assay: microbe, parasite or virus in culture; assay type: cell-based, reovirus type-1; conditions: for EC50: Reovirus sp., BHK, read-out: Reo-1 EC50
[6] = test system: RSV; assay: microbe, parasite or virus in culture; assay type: cell-based, human respiratory syncytial virus; conditions: for EC50: human respiratory syncytial virus, Vero 76, read-out: RSV EC50
[7] = test system: VSV; assay: microbe, parasite or virus in culture; assay type: cell-based; conditions: Vesicular stomatitis virus, Vero 76, read-out: VSV EC50
[8] = test system: VV; assay: microbe, parasite or virus in culture; assay type: cell-based; conditions: Orthopoxvirus vaccinia, Vero 76, read-out: VV EC50
[9] = test system: HSV-1; assay: microbe, parasite or virus in culture; assay type: cell-based, human herpes 1; conditions: Human alphaherpesvirus 1, Vero 76, read-out: HSV-1 EC50
[10] = test system: BHK cells; conditions: Syrian hamster (Mesocricetus auratus)
[11] = in vitro; conditions: human
[12] = in vitro; conditions: cattle (Bos taurus)
[13] = in vitro; conditions: Syrian hamster (Mesocricetus auratus)
[14] = in vitro; conditions: African green monkey (Cercopithecus aethiops)
[15] = test system: HIV-1; assay: microbe, parasite or virus in culture; conditions: Human immunodeficiency virus 1, MT4, read-out: HIV-1 EC50
[16] = test system: MDBK cells

| SMILES | EC50 [1] [µM] | EC50 [2] [µM] | EC50 [3] [µM] | EC50 [4] [µM] | activity against Reo-1 (in words) [5] | EC50 [5] [µM] | EC50 [6] [µM] | EC50 [7] [µM] | EC50 [8] [µM] | EC50 [9] [µM] | CC50 [10] [µM] | CC50 [11] [µM] | CC50 [12] [µM] | CC50 [13] [µM] | CC50 [14] [µM] | EC50 [15] [µM] | activity against BVDV (in words) [1] | activity against RSV (in words) [6] | cytotoxicity for MDBK cell lines (in words) [16] |
| --- | --- | --- | --- | --- | --- | --- | --- | --- | --- | --- | --- | --- | --- | --- | --- | --- | --- | --- | --- |
| C=CCNC(=S)NCCc1c[nH]c2ccccc12 [Compound 18, 1-(2-(1H-Indol-3-yl)ethyl)-3-allylthiourea] | > 100 | > 100 | > 100 | > 100 | not particularly significant | 61 | > 100 | > 100 | > 100 | > 100 | > 100 | > 100 | > 100 | > 100 | > 100 | > 100 | – | – | – |
| S=C(NCCc1ccccc1)NCCc1c[nH]c2ccccc12 [Compound 16, 1-(2-(1H-Indol-3-yl)ethyl)-3-phenethylthiourea] | 46 | > 18 | 18 ± 1.7 | > 100 | – | > 18 | 30 ± 2.6 | > 100 | > 100 | > 100 | – | 49 | > 100 | 18 | > 100 | > 49 | showed activity | moderately active | lack of cytotoxicity |
